From US8962575B2, “Clerodane derivatives for modulation of leukotriene receptor activity and related diseases” (Biotropics Malaysia Berhad, priority 2011, dated 2015)

Biological target: T1, Human BLT2 Receptor (Homo sapiens, UniProt Q9NPC1)
T1 construct: host or cells: BLT2 HEK293T cells transiently transfected with chimeric G protein Gαqi5
T1 sequence (Q9NPC1 1-358): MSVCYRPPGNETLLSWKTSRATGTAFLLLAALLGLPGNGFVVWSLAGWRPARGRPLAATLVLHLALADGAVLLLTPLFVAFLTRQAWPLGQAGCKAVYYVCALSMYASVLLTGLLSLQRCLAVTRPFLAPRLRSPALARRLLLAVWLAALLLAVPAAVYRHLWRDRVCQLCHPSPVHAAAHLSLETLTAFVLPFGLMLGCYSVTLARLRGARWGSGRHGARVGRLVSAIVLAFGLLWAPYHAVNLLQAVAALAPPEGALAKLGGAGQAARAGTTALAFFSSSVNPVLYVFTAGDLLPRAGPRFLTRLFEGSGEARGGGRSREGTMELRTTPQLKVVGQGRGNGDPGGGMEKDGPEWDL
Assay: Recombinant cell assay (calcium flux, antagonist mode, LTB4 pre-stimulation)
Type: cell-based
Details: pure compounds at 10 μM, 5 min pre-incubation; antagonist mode with LTB4; BLT2 HEK293T cells
Protocol: A) Recombinant Cell Assay (Human BLT2 Receptor)
The BLT2 assay conducted was a functional cell based assay, with transiently transfected HEK293T cells (Transfection: with chimeric G protein Gαqi5; Minami et al, “Analysis of the effects of halothane on Gi-coupled muscarinic M2 receptor signal” Pharmacology (2004) 72: 205-12). […] The test items were measured subsequently in the antagonist mode as described above in a concentration of 10 μM (pure compounds) or 15 μg/ml (extracts and/or mixtures).
This assay was performed by Multispan, Inc., Hayward (CA, USA) under the catalog no C1272, the assay principle is outlined by Yokomizo (J Exp Med (2000) 192:421-432).
• Cells: BLT2 HEK293T cells transiently transfected with chimeric G protein Gαqi5 • Compounds: Test compounds dissolved in DMSO at a concentration of 10 mM or 100 mg/mL.
Calcium assay: Cells were seeded in 384-well plates at appropriate densities and cultured overnight. Calcium assays were conducted according to the manufacturer's protocol using Molecular Devices FLIPR Calcium 4 Assay kit. Calcium 4 dye loading buffer was added to the cells and incubated for one hour at 37° C. The test compounds were pre-incubated for 5 minutes at a final concentration of 10 μM or 15 μg/mL, respectively. Calcium flux was measured for 90 seconds with the respective agonist compound injected into the wells at 19th second. Agonist was used at a concentration in which maximum reaction was observed.
Data analysis: Calcium assay results are expressed as “RFU” (Relative Fluorescence Units) and are shown in the following table as “remaining % RFU against DMOS) (meaning % Increase in RFU after correction for DMSO and baseline). Two-tailed Student's t-test was used for treatment comparisons and statistic significance was defined as p<0.05.

Row | remaining % RFU against DMSO [%] | SMILES
1 | 78.6 | COC(=O)C1=CC(O)CC2C3(C)CC(c4ccoc4)OC(=O)C3CC(OC3OC(CO)C(O)C(O)C3O)C12C (stereo not drawn) [COI 4, methyl 2-(furan-3-yl)-9-hydroxy-6a,10b-dimethyl-4-oxo-6-(3,4,5-trihydroxy-6-(hydroxymethyl)tetrahydro-2H-pyran-2-yloxy)-2,4,4a,5,6,6a,9,10,10a,10b-decahydro-1H-benzo[f]isochromene-7-carboxylate]
2 | 83.2 | CC12CC(c3ccoc3)OC(=O)C1CC1OC(=O)C3(O)C(OC4OC(CO)C(O)C(O)C4O)CCC2C13C (stereo not drawn) [COI 7, 9-(furan-3-yl)-3a-hydroxy-3a1,10a-dimethyl-3-(3,4,5-trihydroxy-6-(hydroxymethyl)tetrahydro-2H-pyran-2-yloxy)decahydroisobenzofuro[7,1-fg]isochromene-4,7(3a1H,5aH)-dione]
3 | 79.7 | COC(=O)C1=CCCC2C3(C)CC(c4ccoc4)OC(=O)C3CC(OC3OC(CO)C(OC4OC(CO)C(O)C(O)C4O)C(O)C3O)C12C (stereo not drawn) [COI 5, methyl 6-(3,4-dihydroxy-6-(hydroxymethyl)-5-(3,4,5-trihydroxy-6-(hydroxymethyl)tetrahydro-2H-pyran-2-yloxy)tetrahydro-2H-pyran-2-yloxy)-2-(furan-3-yl)-6a,10b-dimethyl-4-oxo-2,4,4a,5,6,6a,9,10,10a,10b-decahydro-1H-benzo[f]isochromene-7-carboxylate]
